According to publication PMC3523740 (Chemistry & biodiversity, 2012):
Where two headings read alike, the source gives them in different places.

Legend:
NP2(D1A) [1] = conditions: read-out: Kd^Hm (nM) at pH 5.5; cited from earlier work
(M0)NP2 [2] = conditions: read-out: Kd^Hm (nM) at pH 5.5; cited from earlier work
(M0)NP2 [3] = conditions: read-out: Kd^Hm (nM) at pH 7.5; cited from earlier work
NP2(D1A) [4] = conditions: read-out: Kd^Hm (nM) at pH 7.5; cited from earlier work
[5] = read-out: Kd^NO at pH 7.5, nitric oxide; cited from earlier work
[6] = histamine, cited from earlier work
[7] = Nitric oxide dissociation constant of the Fe; format: binding; conditions: pH 5.0, 27 °C
[8] = Kinetics of nitric oxide release; format: binding
[9] = Stopped-flow kinetics of histamine binding and release; conditions: pH 5.5, calculated from Kd = koff/kon

| Molecule | Kd (NP2(D1A) [1]) [nM] | Kd ((M0)NP2 [2]) [nM] | Kd ((M0)NP2 [3]) [nM] | Kd (NP2(D1A) [4]) [nM] | Kd [5] [µM] | koff^Hm at pH 5.5 ([6]; pH 5.5) | koff^Hm at pH 7.5 ([6]; pH 7.5) | kon^Hm at pH 7.5 ([6]; pH 7.5) | Kd^NO at pH 5.0 [7] | kon^NO at pH 5.0 ([8]; pH 5.0, 27 °C) | koff^NO at pH 5.0 ([8]; pH 5.0, 27 °C, displacement by histamine, this work) | koff^NO at pH 7.5 ([8]; pH 7.5, 27 °C, displacement by histamine, this work) | kon^NO at pH 7.5 ([8]; pH 7.5, calculated from Kd = koff/kon) | kon^Hm at pH 5.5 [9] |
| --- | --- | --- | --- | --- | --- | --- | --- | --- | --- | --- | --- | --- | --- | --- |
| (M0)NP2: Recombinant nitrophorin 2 expressed in E. coli retaining methionine-0 from the start codon (N-terminus MDC…) |  |  |  |  | 0.005 ± 0.001 | 0.163 ± 0.011 ^b s^−1 | 0.056 ± 0.003 ^b s^−1 | 4.5 ± 0.1 ^b μM^−1s^−1 | Too small to meas. | Too large to meas. | 0.049 ± 0.002 ^TW s^−1 | 0.161 ± 0.005 ^TW s^−1 | 32.3 ± 6.5 ^a μM^−1s^−1 | 0.7 ± 0.1 ^a μM^−1s^−1 |
